In patent US12668585B2, “Substituted pyrimidinyl-pyrazoles as CDK2 inhibitors” (BLUEPRINT MEDICINES CORPORATION, priority 2021, dated 2026):
pIC50: −log10 of the molar value. Where two headings read alike, the source gives them in different places.

Legend:
[1] = target: T1, CDK2/Cyclin E (Homo sapiens, UniProt P24941); assay: Biochemical CDK inhibition assay (Caliper mobility shift), CDK2/Cyclin E; settings: read-out: CDK2/cyclin E1 IC50
T1 construct: purchased Eurofins 14-475
Protocol: (§1) Inhibitory effects of the compounds of the disclosure were measured in biochemical assays that measure the enzymatic phosphorylation activity of CDK enzyme in complex of Cyclin proteins phosphorylates 7.5 micromolar fluorescently labelled peptide substrate, 5-FAM-QSPKKG-CONH2, (FL-Peptide 18, Perkin Elmer, 760362) in the presence of adenosine-5′-triphosphate (ATP) and varying concentrations of the test compound in 100 mM 2-[4-(2-hydroxyethyl)piperazin-1-yl] ethanesulfonic acid (HEPES), pH 7.5, 10 mM MgCl2, 0.015% Brij-35, 1 mM dithiothreitol (DTT), 1.0% dimehylsulfoxide (DMSO). […] Reactions proceeded until between 10% to 20% total peptides were phosphorylated at room temperature (25° C.) and were terminated with 35 mM 2,2′,2″,2′″-(ethane-1,2-diyldinitrilo)tetraacetic acid (EDTA). Product was detected using the Caliper mobility shift detection method where the phosphorylated peptide (product) and substrate were electrophoretically separated and measured. Percent activity was plotted against log concentration of compound and points to generate an apparent IC50. The following CDK enzymes in complex with different cyclin proteins were used in these assays: • CDK1/Cyclin B1, GST-tag (BPS, 40454), 1.5 nM used in the assay • CDK2/Cyclin E (Eurofins, 14-475), 1.25 nM used in the assays
(§2) For inhibitory activity against CDK2/Cyclin E mutant, the following designations are used: ≤10 nM=A; >10-20 nM=B; >20-30 nM=C; >30-100 nM=D and >100=E. For inhibition CDK1/Cyclin B1, GST-tag: ≥500 nM=A; <100-500 nM=B; <100 nM=C.

[2] = target: T2, CDK1/Cyclin B1, GST-tag (Homo sapiens, UniProt P06493); assay: Biochemical CDK inhibition assay (Caliper mobility shift), CDK1/Cyclin B1
T2 construct: GST; purchased BPS 40454
T2 sequence (P06493 whole entry): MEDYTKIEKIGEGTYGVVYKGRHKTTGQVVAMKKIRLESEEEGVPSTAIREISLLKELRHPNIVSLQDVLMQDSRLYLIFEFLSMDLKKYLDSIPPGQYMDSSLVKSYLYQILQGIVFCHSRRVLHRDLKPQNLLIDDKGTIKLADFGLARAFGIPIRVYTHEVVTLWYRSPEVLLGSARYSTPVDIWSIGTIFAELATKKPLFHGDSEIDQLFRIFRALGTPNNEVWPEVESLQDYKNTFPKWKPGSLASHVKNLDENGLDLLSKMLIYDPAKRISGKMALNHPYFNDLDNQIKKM
T2 sequence (P14635 whole entry partner): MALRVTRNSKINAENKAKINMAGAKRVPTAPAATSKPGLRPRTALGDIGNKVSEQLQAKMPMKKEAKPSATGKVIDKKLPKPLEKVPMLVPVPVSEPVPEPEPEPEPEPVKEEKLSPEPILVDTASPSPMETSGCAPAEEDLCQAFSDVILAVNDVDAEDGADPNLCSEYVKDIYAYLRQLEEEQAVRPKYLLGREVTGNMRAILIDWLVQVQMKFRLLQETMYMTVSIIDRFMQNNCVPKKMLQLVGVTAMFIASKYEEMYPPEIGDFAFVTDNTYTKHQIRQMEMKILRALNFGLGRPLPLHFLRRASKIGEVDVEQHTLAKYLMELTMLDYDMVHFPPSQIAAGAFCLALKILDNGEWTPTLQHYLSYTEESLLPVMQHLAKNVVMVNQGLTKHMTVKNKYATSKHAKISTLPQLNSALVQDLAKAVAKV
Protocol: as §1, §2

pIC50 [1] | pIC50 [2] | Molecule | pIC50 ([1]; apparent IC50, 1.25 nM enzyme, 1.0 mM ATP or ATP Km, 7.5 micromolar FL-Peptide 18, 25° C.) | pIC50 ([2]; apparent IC50, 1.5 nM enzyme, 1.0 mM ATP or ATP Km, 7.5 micromolar FL-Peptide 18, 25° C.)
7.70 to 8.00 | 6.30 to 7.00 | N#Cc1cnc(Nc2ccc(S(N)(=O)=O)cc2)nc1-c1cnn(CCO)c1 [Example 34, 4-((5-cyano-4-(1-(2-hydroxyethyl)-1H-pyrazol-4-yl)pyrimidin-2-yl)amino)benzenesulfonamide] |  | 
7.70 to 8.00 | ≤ 6.30 | C[C@H](O)Cn1cc(-c2nc(Nc3ccc(S(N)(=O)=O)cc3F)ncc2C(F)(F)F)cn1 [Example 35, (S)-3-fluoro-4-((4-(1-(2-hydroxypropyl)-1H-pyrazol-4-yl)-5-(trifluoromethyl)pyrimidin-2-yl)amino)benzenesulfonamide] |  | 
7.52 to 7.70 | ≤ 6.30 | CCc1cnc(Nc2ccc(S(N)(=O)=O)cc2F)nc1-c1cnn(CC(C)(C)O)c1 [Example 42, 4-((5-ethyl-4-(1-(2-hydroxy-2-methylpropyl)-1H-pyrazol-4-yl)pyrimidin-2-yl)amino)-3-fluorobenzenesulfonamide] |  | 
≥ 8.00 | > 7.00 | CC(C)(O)Cn1cc(-c2nc(Nc3ccc(S(N)(=O)=O)cc3)ncc2Cl)cn1 [Example 3, 4-((5-chloro-4-(1-(2-hydroxy-2-methylpropyl)-1H-pyrazol-4-yl)pyrimidin-2-yl)amino)benzenesulfonamide] |  | 
≥ 8.00 | 6.30 to 7.00 | Cc1c(S(N)(=O)=O)ccc(Nc2ncc(C(F)(F)F)c(-c3cnn(CC(C)(C)O)c3)n2)c1F [Example 21, 3-fluoro-4-((4-(1-(2-hydroxy-2-methylpropyl)-1H-pyrazol-4-yl)-5-(trifluoromethyl)pyrimidin-2-yl)amino)-2-methylbenzenesulfonamide] |  | 
≥ 8.00 | 6.30 to 7.00 | C[C@H](O)[C@H](C)n1cc(-c2nc(Nc3ccc(S(N)(=O)=O)cc3F)ncc2C(F)(F)F)cn1 (single isomer, unassigned) [Example 9] |  | 
≥ 8.00 | ≤ 6.30 | NS(=O)(=O)c1ccc(Nc2ncc(C(F)(F)F)c(-c3cnn(C4CCOCC4)c3)n2)c(F)c1 [Example 47, 3-fluoro-4-((4-(1-(tetrahydro-2H-pyran-4-yl)-1H-pyrazol-4-yl)-5-(trifluoromethyl)pyrimidin-2-yl)amino)benzenesulfonamide] |  | 
≥ 8.00 | > 7.00 | CC(C)(O)Cn1cc(-c2nc(Nc3ccc(S(N)(=O)=O)cc3)ncc2C#N)cn1 [Example 8, 4-((5-cyano-4-(1-(2-hydroxy-2-methylpropyl)-1H-pyrazol-4-yl)pyrimidin-2-yl)amino)benzenesulfonamide] |  | 
7.70 to 8.00 | ≤ 6.30 | NS(=O)(=O)c1ccc(Nc2ncc(C(F)(F)F)c(-c3cnn(CC(O)C4CC4)c3)n2)c(F)c1 (stereo not shown) [Example 32, 4-((4-(1-(2-cyclopropyl-2-hydroxyethyl)-1H-pyrazol-4-yl)-5-(trifluoromethyl)pyrimidin-2-yl)amino)-3-fluorobenzenesulfonamide] |  | 
7.70 to 8.00 | ≤ 6.30 | Cc1cnc(Nc2ccc(S(N)(=O)=O)cc2F)nc1-c1cnn(CC(C)(C)O)c1 [Example 36, 3-fluoro-4-((4-(1-(2-hydroxy-2-methylpropyl)-1H-pyrazol-4-yl)-5-methylpyrimidin-2-yl)amino)benzenesulfonamide] |  | 
≥ 8.00 | 6.30 to 7.00 | COc1cc(S(N)(=O)=O)ccc1Nc1ncc(C(F)(F)F)c(-c2cnn(CC(C)(C)O)c2)n1 [Example 27, 4-((4-(1-(2-hydroxy-2-methylpropyl)-1H-pyrazol-4-yl)-5-(trifluoromethyl)pyrimidin-2-yl)amino)-3-methoxybenzenesulfonamide] |  | 
≥ 8.00 | 6.30 to 7.00 | C[C@@H](O)[C@H](C)n1cc(-c2nc(Nc3ccc(S(N)(=O)=O)cc3F)ncc2C(F)(F)F)cn1 (single isomer, unassigned) [Example 13] |  | 
7.00 to 7.52 | ≤ 6.30 | COc1cc(S(N)(=O)=O)ccc1Nc1ncc(F)c(-c2cnn(CC(C)(C)O)c2)n1 [Example 46, 4-((5-fluoro-4-(1-(2-hydroxy-2-methylpropyl)-1H-pyrazol-4-yl)pyrimidin-2-yl)amino)-3-methoxybenzenesulfonamide] |  | 
≥ 8.00 | > 7.00 | Cc1cc(S(N)(=O)=O)ccc1Nc1ncc(Cl)c(-c2cnn(CC(C)(C)O)c2)n1 [Example 14] |  | 

The remaining lines, values behind:

Molecule | pIC50 [1] | pIC50 [2] | pIC50 ([1]; apparent IC50, 1.25 nM enzyme, 1.0 mM ATP or ATP Km, 7.5 micromolar FL-Peptide 18, 25° C.) | pIC50 ([2]; apparent IC50, 1.5 nM enzyme, 1.0 mM ATP or ATP Km, 7.5 micromolar FL-Peptide 18, 25° C.)
Cc1cnc(Nc2ccc(S(N)(=O)=O)cc2)nc1-c1cnn(CC(C)(C)O)c1 [Example 17, 4-((4-(1-(2-hydroxy-2-methylpropyl)-1H-pyrazol-4-yl)-5-methylpyrimidin-2-yl)amino)benzenesulfonamide] | ≥ 8.00 | 6.30 to 7.00 |  | 
COc1c(S(N)(=O)=O)ccc(Nc2ncc(C(F)(F)F)c(-c3cnn(CC(C)(C)O)c3)n2)c1F [Example 40, 3-fluoro-4-((4-(1-(2-hydroxy-2-methylpropyl)-1H-pyrazol-4-yl)-5-(trifluoromethyl)pyrimidin-2-yl)amino)-2-methoxybenzenesulfonamide] | 7.70 to 8.00 | ≤ 6.30 |  | 
C[C@H]([C@@H](C)O)n1cc(-c2nc(Nc3ccc(S(N)(=O)=O)cc3F)ncc2C(F)(F)F)cn1 (single isomer, unassigned) [Example 25] | ≥ 8.00 | 6.30 to 7.00 |  | 
CC(C)(O)Cn1cc(-c2nc(Nc3ccc(S(N)(=O)=O)cc3F)ncc2C(F)F)cn1 [Example 11, 4-((5-(difluoromethyl)-4-(1-(2-hydroxy-2-methylpropyl)-1H-pyrazol-4-yl)pyrimidin-2-yl)amino)-3-fluorobenzenesulfonamide] | ≥ 8.00 | 6.30 to 7.00 |  | 
C[C@@H](O)Cn1cc(-c2nc(Nc3ccc(S(N)(=O)=O)cc3F)ncc2C(F)(F)F)cn1 [Example 20, (R)-3-fluoro-4-((4-(1-(2-hydroxypropyl)-1H-pyrazol-4-yl)-5-(trifluoromethyl)pyrimidin-2-yl)amino)benzenesulfonamide] | ≥ 8.00 | 6.30 to 7.00 |  | 
3-fluoro-4-((4-(1-(2-hydroxyethyl)-1H-pyrazol-4-yl)-5-(trifluoromethyl)pyrimidin-2-yl)amino)benzenesulfonamide or 3-fluoro-4-((2-(1-(2-hydroxyethyl)-1H-pyrazol-4-yl)-5-(trifluoromethyl)pyrimidin-4-yl)amino)benzenesulfonamide [Example 33] |  |  | 7.70 to 8.00 | ≤ 6.30
NS(=O)(=O)c1ccc(Nc2ncc(C(F)(F)F)c(-c3cnn(CC4(O)COC4)c3)n2)c(F)c1 [Example 41, 3-fluoro-4-((4-(1-((3-hydroxyoxetan-3-yl)methyl)-1H-pyrazol-4-yl)-5-(trifluoromethyl)pyrimidin-2-yl)amino)benzenesulfonamide] | 7.70 to 8.00 | ≤ 6.30 |  | 
CC(C)(O)Cn1cc(-c2nc(Nc3ccc(S(N)(=O)=O)cc3)ncc2C(F)(F)F)cn1 [Example 5, 4-((4-(1-(2-hydroxy-2-methylpropyl)-1H-pyrazol-4-yl)-5-(trifluoromethyl)pyrimidin-2-yl)amino)benzenesulfonamide] | ≥ 8.00 | > 7.00 |  | 
C[C@H](n1cc(-c2nc(Nc3ccc(S(N)(=O)=O)cc3F)ncc2C(F)(F)F)cn1)C(C)(C)O (single isomer, unassigned) [Example 6, (S)-3-fluoro-4-((4-(1-(3-hydroxy-3-methylbutan-2-yl)-1H-pyrazol-4-yl)-5-(trifluoromethyl)pyrimidin-2-yl)amino)benzenesulfonamide or (R)-3-fluoro-4-((4-(1-(3-hydroxy-3-methylbutan-2-yl)-1H-pyrazol-4-yl)-5-(trifluoromethyl)pyrimidin-2-yl)amino)benzenesulfonamide] | ≥ 8.00 | > 7.00 |  | 
C[C@@H](n1cc(-c2nc(Nc3ccc(S(N)(=O)=O)cc3F)ncc2C(F)(F)F)cn1)C(C)(C)O (single isomer, unassigned) [Example 7, (R)-3-fluoro-4-((4-(1-(3-hydroxy-3-methylbutan-2-yl)-1H-pyrazol-4-yl)-5-(trifluoromethyl)pyrimidin-2-yl)amino)benzenesulfonamide or (S)-3-fluoro-4-((4-(1-(3-hydroxy-3-methylbutan-2-yl)-1H-pyrazol-4-yl)-5-(trifluoromethyl)pyrimidin-2-yl)amino)benzenesulfonamide] | ≥ 8.00 | 6.30 to 7.00 |  | 
CC(C)(O)Cn1cc(-c2nc(Nc3ccc(S(N)(=O)=O)cc3Cl)ncc2F)cn1 [Example 44, 3-chloro-4-((5-fluoro-4-(1-(2-hydroxy-2-methylpropyl)-1H-pyrazol-4-yl)pyrimidin-2-yl)amino)benzenesulfonamide] | 7.52 to 7.70 | ≤ 6.30 |  | 
CC(C)(O)Cn1cc(-c2nc(Nc3ccc(S(N)(=O)=O)cc3F)ncc2F)cn1 [Example 30, 3-fluoro-4-((5-fluoro-4-(1-(2-hydroxy-2-methylpropyl)-1H-pyrazol-4-yl)pyrimidin-2-yl)amino)benzenesulfonamide] | ≥ 8.00 | 6.30 to 7.00 |  | 
